According to patent US9708251B2, “Unsaturated fatty alcohol alkoxylates from natural oil metathesis” (Stepan Company, priority 2012, dated 2017):
Each block holds one molecule with its values, some of them ahead of it.

What was measured:
Type in all cases: physicochemical
[1] = Fabric cleaning: compaction (surfactant blends)
Protocol: The sample is formulated into surfactant blends having high actives content. Two experimental derivatives, A12-13 and A12-21, are evaluated.
In a first experiment, a three-component surfactant blend is prepared. This blend comprises the experimental sample (30 wt. %), a linear alkylbenzene sulfonate (15 wt. %), and an alkyl ether sulfate (15 wt. %). The appearance and viscosity of the blend are compared with those of similar three-component blends in which a standard alcohol ethoxylate replaces the experimental sample.
In a second experiment, a two-component surfactant blend is prepared in which the experimental sample and a linear alkylbenzene sulfonate are combined at a 1:1 actives ratio, beginning with a high actives blend having a cloudy appearance. Water is gradually added and mixed with the surfactant blend at room temperature. […]

[2] = Emulsion stability testing of nonionic emulsifiers, aromatic solvent series; set-up: key to 24 h separation, appearance / 1 h separation, appearance / 1 h separation, amount: C = creamy; CO = creamy oil; O = oil; GC = gritty cream; NS = no separation; OC = oily cream; key to Spon. (spontaneity): G = good; F = fair; P = poor
Protocol: (§1) Nonionic samples contain a low amount of water (<1%) and are prepared as emulsifiable concentrates with three pesticides using two different solvent systems. In the aromatic solvent series, the nonionic sample replaces Toximul® 8240 (castor oil ethoxylate, 36 POE, Stepan), and in the Hallcomid™ (N,N-dimethylcaprylamide/N,N-dimethylcapramide, Stepan) solvent series, the nonionic sample replaces Ninex® MT-630F.
Sample preparation: Ninate® 60E (calcium alkylbenzenesulfonate, Stepan) and the test sample are stirred until homogeneous. […] Controls 1-3 are made by using Toximul 8240 in the amounts indicated instead of the nonionic sample.
Formulations: • 1. Bifenthrin, 240 g/L (2.99 g), Aromatic 100 (ExxonMobil, 8.05 g), Ninate 60E (0.38 g), and nonionic sample or Toximul 8240 (0.58 g). • 2. 2,4-D ester, 480 g/L (8.90 g), Exxsol® D-110 (ExxonMobil, 2.50 g), Ninate 60E (0.36 g), and nonionic sample or Toximul 8240 (0.24 g). • 3. Tebuconazole, 360 g/L (4.45 g), N-methyl-2-pyrrolidone (6.35 g), Ninate 60E (0.48 g), nonionic sample or Toximul 8240 (0.72 g).
(§2) Emulsion Stability Testing
(§3) A Mohr pipette is used to feed pesticide/surfactant concentrates to each cylinder.

[3] = Agrichemical solvent analysis: active solubility; conditions: room temperature
Protocol: Solvency strength of potential agrichemical solvents is evaluated by identifying the solubility level of three standard pesticides in the solvent by weight percent: 2,4-D acid, imidacloprid, and tebuconazole. […] The active material is also accurately weighed before addition. Initial amounts of active material are approximately: 2,4-D: 0.3 g; imidacloprid: 0.02 g; tebuconazole: 0.3 g. Solvent and pesticide active are combined, allowed to mix for 1 h at room temperature, and then inspected for the presence of undissolved active material. Additional active material is added in appropriately small increments until it no longer dissolves completely. This mixture is then stirred for 24 h at room temperature, and if the active has completely dissolved, additional active ingredient is added and the mixture is stirred another 24 h at room temperature. The percent solubility is recorded, and performance is compared with that of a standard agricultural solvent.

[4] = Emulsion stability testing of nonionic emulsifiers, Hallcomid solvent series; set-up: key to 24 h separation, appearance / 1 h separation, appearance / 1 h separation, amount: C = creamy; CO = creamy oil; O = oil; GC = gritty cream; NS = no separation; OC = oily cream; key to Spon. (spontaneity): G = good; F = fair; P = poor
Protocol: as §1
(§4) Hallcomid Solvent Series.
(§5) Sample preparation: The surfactants are combined and stirred until homogeneous, with the nonionic sample melted if needed prior to combination. Controls 1-3 are made by using Ninex MT-630F in the amounts indicated instead of the nonionic sample.
as §2, §3

[5] = as above; set-up: key: C = creamy; CO = creamy oil; O = oil; GC = gritty cream; NS = no separation; OC = oily cream; conditions: Bifenthrin 240 g/L in Hallcomid M-8-10, 34 ppm water
Protocol: as §1, §4, §5, §2, §3

[6] = Surfactant phase behavior study (cross-polarized microscopy); conditions: room temperature
Protocol: Phase behavior is observed using an Olympus BH-2 cross-polarized microscope at 100-400× and room temperature (20° C. to 22° C.). The inventive monounsaturated alcohol ethoxylates are compared with their saturated analogs.
Samples are prepared by diluting the most concentrated product gradually with deionized water. When the surfactant concentration approaches a phase transition, the concentration is varied at 2-4% intervals to estimate the phase boundary. The actives level reported in Table 4 for each phase boundary is within ±5% of the true boundary.
Samples are loaded between a microscope slide and cover glass and are allowed to equilibrate before observation. Microscopic texture is analyzed and used to determine the phase. For some samples, an AR 2000 rheometer (TA Instruments) is used to measure viscosity at 25° C. to further verify phase behavior.

[7] = Solubility evaluation: enhanced oil recovery (EOR); conditions: for Comments (appearance) / Soluble?: 1 wt. % sample, 1% sodium chloride brine
Protocol: Samples are prepared in a 10% stock solution and evaluated at 1 wt. % with a brine concentration of 1% sodium chloride. Replicate experiments are performed at each temperature with each sample.

[8] = three-component blend: sample 30 wt. %, linear alkylbenzene sulfonate 15 wt. %, alkyl ether sulfate 15 wt. %
[9] = 2,4-D ester 480 g/L in Exxsol D-110, 34 ppm water
[10] = 2,4-D ester 480 g/L in Exxsol D-110, 1000 ppm water
[11] = Bifenthrin 240 g/L in Aromatic 100, 34 ppm water
[12] = Bifenthrin 240 g/L in Aromatic 100, 1000 ppm water
[13] = Tebuconazole 360 g/L in N-methyl-2-pyrrolidone, 34 ppm water
[14] = Tebuconazole 360 g/L in N-methyl-2-pyrrolidone, 1000 ppm water
[15] = 2,4-D diester 480 g/L in Hallcomid M-8-10, 34 ppm water
[16] = 2,4-D diester 480 g/L in Hallcomid M-8-10, 1000 ppm water
[17] = Bifenthrin 240 g/L in Hallcomid M-8-10, 34 ppm water
[18] = Bifenthrin 240 g/L in Hallcomid M-8-10, 1000 ppm water
[19] = Tebuconazole 360 g/L in Hallcomid M-8-10, 34 ppm water
[20] = Tebuconazole 360 g/L in Hallcomid M-8-10, 1000 ppm water

Appearance, 25° C. [1, 8]: cloudy, flowable gel
Viscosity [1, 8]: 5600 cPs
% Actives at which blend is clear and homogeneous at 25° C. ([1]; two-component blend with linear alkylbenzene sulfonate, 1:1 actives ratio): 51 % Actives
SMILES: CCC=CCCCCCCCCOCCOCCOCCOCCOCCOCCOCCOCCOCCO (mixture of isomers) [A12-21]

1 h separation, amount [2, 9]: 1.5 mL
1 h separation, appearance [2, 9]: CO
24 h separation, amount [2, 9]: 4.1 mL
24 h separation, appearance [2, 9]: C
Spon. (spontaneity) [2, 9]: F
1 h separation, amount [2, 10]: 4 mL
1 h separation, appearance [2, 10]: CO
24 h separation, amount [2, 10]: 1 O, 4 CO
Spon. (spontaneity) [2, 10]: P
1 h separation, amount [2, 11]: NS
24 h separation, amount [2, 11]: 3.5 mL
24 h separation, appearance [2, 11]: C
Spon. (spontaneity) [2, 11]: F
1 h separation, amount [2, 12]: 3 O, 5 CO
24 h separation, amount [2, 12]: 4.5 O, 1 CO
Spon. (spontaneity) [2, 12]: F
1 h separation, amount [2, 13]: 2 mL
1 h separation, appearance [2, 13]: CO
24 h separation, amount [2, 13]: 2.5 mL
24 h separation, appearance [2, 13]: CO
Spon. (spontaneity) [2, 13]: P
1 h separation, amount [2, 14]: 2.5 mL
1 h separation, appearance [2, 14]: CO
24 h separation, amount [2, 14]: 3 mL
24 h separation, appearance [2, 14]: CO
Spon. (spontaneity) [2, 14]: P
solubility of 2,4-D Acid in the solvent [3]: 29.8 weight percent
solubility of Imidacloprid in the solvent [3]: 2.8 weight percent
solubility of Tebuconazole in the solvent [3]: 13.0 weight percent
1 h separation, amount [4, 15]: 5 mL
1 h separation, appearance [4, 15]: C
24 h separation, amount [4, 15]: 9.9 mL
24 h separation, appearance [4, 15]: C
Spon. (spontaneity) [4, 15]: F
1 h separation, amount [4, 16]: 6 mL
1 h separation, appearance [4, 16]: C
24 h separation, amount [4, 16]: 8 mL
24 h separation, appearance [4, 16]: C
Spon. (spontaneity) [4, 16]: F
1 h separation, amount [4, 17]: NS
Spon. (spontaneity) [4, 17]: G
1 h separation, amount [4, 18]: 6.5 mL
1 h separation, appearance [4, 18]: CO
24 h separation, amount [4, 18]: 4 O, 2 CO
Spon. (spontaneity) [4, 18]: F
1 h separation, amount [4, 19]: 2 mL
1 h separation, appearance [4, 19]: C
24 h separation, amount [4, 19]: 5 mL
24 h separation, appearance [4, 19]: C
Spon. (spontaneity) [4, 19]: F
1 h separation, amount [4, 20]: 3.5 mL
1 h separation, appearance [4, 20]: C
24 h separation, amount [4, 20]: 2 CO, 5 C
Spon. (spontaneity) [4, 20]: F
24 h separation, amount [5]: NS
Isotropic Clear phase region ([6]; in deionized water): 0-100 % Actives Level
SMILES: C=CCCCCCCCCOCCOCCOCCOCCOCCO [A10-10]

1 h separation, amount [2, 9]: 4 mL
1 h separation, appearance [2, 9]: CO
24 h separation, amount [2, 9]: 1 O, 4.5 CO
Spon. (spontaneity) [2, 9]: P
1 h separation, amount [2, 10]: 4 mL
1 h separation, appearance [2, 10]: O
24 h separation, amount [2, 10]: 4 mL
24 h separation, appearance [2, 10]: O
Spon. (spontaneity) [2, 10]: P
1 h separation, amount [2, 11]: 7 mL
1 h separation, appearance [2, 11]: CO
24 h separation, amount [2, 11]: 6.5 mL
24 h separation, appearance [2, 11]: CO
Spon. (spontaneity) [2, 11]: P
1 h separation, amount [2, 12]: 6 mL
1 h separation, appearance [2, 12]: O
24 h separation, amount [2, 12]: 5 mL
24 h separation, appearance [2, 12]: O
Spon. (spontaneity) [2, 12]: P
1 h separation, amount [2, 13]: 2 mL
1 h separation, appearance [2, 13]: GC
24 h separation, amount [2, 13]: 3 mL
24 h separation, appearance [2, 13]: GC
Spon. (spontaneity) [2, 13]: P
1 h separation, amount [2, 14]: 2.5 mL
1 h separation, appearance [2, 14]: GC
24 h separation, amount [2, 14]: 3 mL
24 h separation, appearance [2, 14]: GC
Spon. (spontaneity) [2, 14]: P
solubility of 2,4-D Acid in the solvent [3]: 29.5 weight percent
solubility of Imidacloprid in the solvent [3]: 2.9 weight percent
solubility of Tebuconazole in the solvent [3]: 13.5 weight percent
1 h separation, amount [4, 15]: 5.6 mL
1 h separation, appearance [4, 15]: C
24 h separation, amount [4, 15]: 10 mL
24 h separation, appearance [4, 15]: C
Spon. (spontaneity) [4, 15]: F
1 h separation, amount [4, 16]: 6 mL
1 h separation, appearance [4, 16]: C
24 h separation, amount [4, 16]: 7.5 mL
24 h separation, appearance [4, 16]: C
Spon. (spontaneity) [4, 16]: F
1 h separation, amount [4, 17]: NS
Spon. (spontaneity) [4, 17]: F
1 h separation, amount [4, 18]: 10 mL
1 h separation, appearance [4, 18]: CO
24 h separation, amount [4, 18]: 3 O, 3 CO
Spon. (spontaneity) [4, 18]: P
1 h separation, amount [4, 19]: 2.5 mL
1 h separation, appearance [4, 19]: C
24 h separation, amount [4, 19]: 5 mL
24 h separation, appearance [4, 19]: C
Spon. (spontaneity) [4, 19]: F
1 h separation, amount [4, 20]: 3 mL
1 h separation, appearance [4, 20]: C
24 h separation, amount [4, 20]: 5 mL
24 h separation, appearance [4, 20]: C
Spon. (spontaneity) [4, 20]: F
24 h separation, amount [5]: NS
Comments (appearance) ([7]; 20.7 °C): white, opaque
Soluble? ([7]; 20.7 °C): no
Comments (appearance) ([7]; 51.5 °C): white, opaque
Soluble? ([7]; 51.5 °C): no
Comments (appearance) ([7]; 56.1 °C): white, hazy
Soluble? ([7]; 56.1 °C): no
combined isotropic phases (clear and opaque), share of the total [6]: about 50%
Isotropic Clear phase region ([6]; in deionized water): 70-100 % Actives Level
Isotropic Opaque phase region ([6]; in deionized water): 0-20 % Actives Level
Lamellar phase region ([6]; in deionized water): 20-70 % Actives Level
SMILES: C=CCCCCCCCCOCCOCCOCCO [A10-7]
Overall performance (EOR solubility) ([7]; versus control fatty alcohol ethoxylate): Overall performance of A10-7: Equal to control
